According to patent US9073881B2, “Benzoic acid derivatives” (HOFFMANN-LA ROCHE INC., priority 2011, dated 2015):

Target: Human eIF4E (Homo sapiens (Human), UniProt P06730)
Assay: Human eIF4E/4G binding assay (time-resolved fluorescence, HH-eIF4E and biotin-labeled 4G2 peptide)
Details: inhibition of binding of His-tagged human eIF4E (aa 28-217) to biotin-labeled 4G2 peptide
Method: The protein was solubilized with 8 M urea and purified under denaturing conditions using nickel-charged HisTrap HP columns (GE Healthcare). The protein was refolded by diluting to approximately 0.25 mg/mL with 6 M urea, 20 mM Hepes pH 7.0, 500 mM NaCl, 1 mM DTT, 1 mM EDTA, and 0.5 M arginine.HCl, and then dialyzing overnight into the same buffer without the urea. The protein was further dialyzed into 20 mM Hepes pH 6.5, 50 mM NaCl, 1 mM EDTA, and 1 mM DTT, filtered, and then concentrated using Hitrap SP sepharose FF columns (GE Healthcare). The protein was dialyzed into 20 mM Hepes pH 7.0, 500 mM NaCl, 5 mM DTT, and 10% glycerol and stored at −80° C. until use. Test compounds (1.6 mM stock in DMSO) were diluted 3 fold in series in DMSO. Compound solutions were diluted 4 fold in Assay Buffer (50 mM sodium phosphate, pH 6.5, 50 mM KCl, 1 mM DTT and 0.5 mg/mL gammaglobulin). […] The samples were incubated at room temperature for 20 minutes. […] IC50 values were calculated using Condoseo software (Genedata AG).

Human eIF4E, sequence (P06730 28-217): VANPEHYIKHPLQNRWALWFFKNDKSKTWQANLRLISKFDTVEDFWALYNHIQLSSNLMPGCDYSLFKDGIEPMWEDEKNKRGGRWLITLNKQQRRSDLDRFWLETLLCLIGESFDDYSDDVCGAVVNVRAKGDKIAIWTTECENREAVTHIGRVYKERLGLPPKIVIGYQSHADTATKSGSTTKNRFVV

SMILES | IC50 [µM]
O=C(NCc1ccncc1)c1ccc(-c2ccc(-c3nc(-c4ccc(Cl)c(Cl)c4)cs3)cc2C(=O)O)cc1 [Example 69, 4-[4-(3,4-Dichloro-phenyl)-thiazol-2-yl]-4′-[(pyridin-4-ylmethyl)-carbamoyl]-biphenyl-2-carboxylic acid] | 7.1
O=C(NCc1ccccc1F)c1ccc(-c2ccc(-c3nc(-c4ccc(Cl)c(Cl)c4)cs3)cc2C(=O)O)cc1 [Example 74, 4-[4-(3,4-Dichloro-phenyl)-thiazol-2-yl]-4′-(2-fluoro-benzylcarbamoyl)-biphenyl-2-carboxylic acid] | 2.5
O=C(NCc1cccs1)c1ccc(-c2ccc(-c3nc(-c4ccc(Cl)c(Cl)c4)cs3)cc2C(=O)O)cc1 [Example 75, 4-[4-(3,4-Dichloro-phenyl)-thiazol-2-yl]-4′-[(thiophen-2-ylmethyl)-carbamoyl]-biphenyl-2-carboxylic acid] | 3.1
O=C(NCc1ccccc1)c1ccc(-c2ccc(-c3nc(-c4ccc(Cl)c(Cl)c4)cs3)cc2C(=O)O)cc1 [Example 76, 4′-Benzylcarbamoyl-4-[4-(3,4-dichloro-phenyl)-thiazol-2-yl]-biphenyl-2-carboxylic acid] | 2.3
Cc1cc(C(N)=O)ccc1-c1ccc(-c2nc(-c3ccc(Cl)c(Cl)c3)cs2)cc1C(=O)O [Example 78, 4′-Carbamoyl-4-[4-(3,4-dichloro-phenyl)-thiazol-2-yl]-2′-methyl-biphenyl-2-carboxylic acid] | 1.9
Cc1cc(C(=O)O)ccc1-c1ccc(-c2nc(-c3ccc(Cl)c(Cl)c3)cs2)cc1C(=O)O [Example 79, 4-[4-(3,4-Dichloro-phenyl)-thiazol-2-yl]-2′-methyl-biphenyl-2,4′-dicarboxylic acid] | 5.4
O=C(O)c1cc(-c2nc(-c3ccc(Cl)c(Cl)c3)cs2)ccc1-c1cnc(O)nc1 [Example 84, 5-[4-(3,4-Dichloro-phenyl)-thiazol-2-yl]-2-(2-hydroxy-pyrimidin-5-yl)-benzoic acid] | 1.2
COc1cccc(-c2ccc(-c3nc(-c4ccc(Cl)c(Cl)c4)cs3)cc2C(=O)O)n1 [Example 85, 5-[4-(3,4-Dichloro-phenyl)-thiazol-2-yl]-2-(6-methoxy-pyridin-2-yl)-benzoic acid] | 9.7
COc1ccc(-c2ccc(-c3nc(-c4ccc(Cl)c(Cl)c4)cs3)cc2C(=O)O)c(C(F)(F)F)c1 [Example 87, 4-[4-(3,4-Dichloro-phenyl)-thiazol-2-yl]-4′-methoxy-2′-trifluoromethyl-biphenyl-2-carboxylic acid] | 1.3
O=C(O)c1cc(-c2nc(-c3ccc(Cl)c(Cl)c3)cs2)ccc1-c1cc(OC(F)(F)F)ccc1Cl [Example 88, 2′-Chloro-4-[4-(3,4-dichloro-phenyl)-thiazol-2-yl]-5′-trifluoromethoxy-biphenyl-2-carboxylic acid] | 0.6
COc1cccc(Cl)c1-c1ccc(-c2nc(-c3ccc(Cl)c(Cl)c3)cs2)cc1C(=O)O [Example 90, 2′-Chloro-4-[4-(3,4-dichloro-phenyl)-thiazol-2-yl]-6′-methoxy-biphenyl-2-carboxylic acid] | 1.8
COc1cccc(-c2ccc(-c3nc(-c4ccc(Cl)c(Cl)c4)cs3)cc2C(=O)O)c1 [Example 91, 4-[4-(3,4-Dichloro-phenyl)-thiazol-2-yl]-3′-methoxy-biphenyl-2-carboxylic acid] | 5
COc1ccc(Cl)c(-c2ccc(-c3nc(-c4ccc(Cl)c(Cl)c4)cs3)cc2C(=O)O)c1 [Example 93, 2′-Chloro-4-[4-(3,4-dichloro-phenyl)-thiazol-2-yl]-5′-methoxy-biphenyl-2-carboxylic acid] | 3
O=C(O)c1cc(-c2nc(-c3ccc(Cl)c(Cl)c3)cs2)ccc1-c1cc(O)ccc1Cl [Example 95, 2′-Chloro-4-[4-(3,4-dichloro-phenyl)-thiazol-2-yl]-5′-hydroxy-biphenyl-2-carboxylic acid] | 3.4
Cc1ncccc1-c1ccc(-c2nc(-c3ccc(Cl)c(Cl)c3)cs2)cc1C(=O)O [Example 98, 5-[4-(3,4-Dichloro-phenyl)-thiazol-2-yl]-2-(2-methyl-pyridin-3-yl)-benzoic acid] | 4
O=C(O)c1cc(-c2nc(-c3ccc(Cl)c(Cl)c3)cs2)ccc1-c1ccc(F)cn1 [Example 100, 5-[4-(3,4-Dichloro-phenyl)-thiazol-2-yl]-2-(5-fluoro-pyridin-2-yl)-benzoic acid] | 3
O=C(O)c1cc(-c2nc(-c3ccc(Cl)c(Cl)c3)cs2)ccc1-c1ccncc1 [Example 103, 5-[4-(3,4-Dichloro-phenyl)-thiazol-2-yl]-2-pyridin-4-yl-benzoic acid] | 8.5
Cc1cc(C#N)ccc1-c1ccc(-c2nc(-c3ccc(Cl)c(Cl)c3)cs2)cc1C(=O)O [Example 105, 4′-Cyano-4-[4-(3,4-dichloro-phenyl)-thiazol-2-yl]-2′-methyl-biphenyl-2-carboxylic acid] | 1.3
N#Cc1cccc(-c2ccc(-c3nc(-c4ccc(Cl)c(Cl)c4)cs3)cc2C(=O)O)c1 [Example 107, 3′-Cyano-4-[4-(3,4-dichloro-phenyl)-thiazol-2-yl]-biphenyl-2-carboxylic acid] | 3.2
N#Cc1ccc(Cl)c(-c2ccc(-c3nc(-c4ccc(Cl)c(Cl)c4)cs3)cc2C(=O)O)c1 [Example 108, 2′-Chloro-5′-cyano-4-[4-(3,4-dichloro-phenyl)-thiazol-2-yl]-biphenyl-2-carboxylic acid] | 3.5
NC(=O)c1ccc(Cl)c(-c2ccc(-c3nc(-c4ccc(Cl)c(Cl)c4)cs3)cc2C(=O)O)c1 [Example 109, 5′-Carbamoyl-2′-chloro-4-[4-(3,4-dichloro-phenyl)-thiazol-2-yl]-biphenyl-2-carboxylic acid] | 3.7
N#Cc1ccc(Cl)cc1-c1ccc(-c2nc(-c3ccc(Cl)c(Cl)c3)cs2)cc1C(=O)O [Example 110, 5′-Chloro-2′-cyano-4-[4-(3,4-dichloro-phenyl)-thiazol-2-yl]-biphenyl-2-carboxylic acid] | 1.7

The remaining compounds from weak to strong by IC50, led by results:

IC50 [µM] | SMILES
14 | COc1ncc(-c2ccc(-c3nc(-c4ccc(Cl)c(Cl)c4)cs3)cc2C(=O)O)cn1 [Example 83, 5-[4-(3,4-Dichloro-phenyl)-thiazol-2-yl]-2-(2-methoxy-pyrimidin-5-yl)-benzoic acid]
7.6 | N#Cc1ccc(-c2ccc(-c3nc(-c4ccc(Cl)c(Cl)c4)cs3)cc2C(=O)O)cc1 [Example 106, 4′-Cyano-4-[4-(3,4-dichloro-phenyl)-thiazol-2-yl]-biphenyl-2-carboxylic acid]
5.4 | O=C(O)c1cc(-c2nc(-c3ccc(Cl)c(Cl)c3)cs2)ccc1-c1cncc(Cl)c1 [Example 102, 2-(5-Chloro-pyridin-3-yl)-5-[4-(3,4-dichloro-phenyl)-thiazol-2-yl]-benzoic acid]
4.8 | COc1ccccc1-c1ccc(-c2nc(-c3ccc(Cl)c(Cl)c3)cs2)cc1C(=O)O [Example 92, 4-[4-(3,4-Dichloro-phenyl)-thiazol-2-yl]-2′-methoxy-biphenyl-2-carboxylic acid]
3.6 | CCOc1ncc(-c2ccc(-c3nc(-c4ccc(Cl)c(Cl)c4)cs3)cc2C(=O)O)cn1 [Example 82, 5-[4-(3,4-Dichloro-phenyl)-thiazol-2-yl]-2-(2-ethoxy-pyrimidin-5-yl)-benzoic acid]
3.2 | O=C(NCc1cccc(C(F)(F)F)c1)c1ccc(-c2ccc(-c3nc(-c4ccc(Cl)c(Cl)c4)cs3)cc2C(=O)O)cc1 [Example 71, 4-[4-(3,4-Dichloro-phenyl)-thiazol-2-yl]-4′-(3-trifluoromethyl-benzylcarbamoyl)-biphenyl-2-carboxylic acid]
2.1 | O=C(NCc1cccc(F)c1)c1ccc(-c2ccc(-c3nc(-c4ccc(Cl)c(Cl)c4)cs3)cc2C(=O)O)cc1 [Example 73, 4-[4-(3,4-Dichloro-phenyl)-thiazol-2-yl]-4′-(3-fluoro-benzylcarbamoyl)-biphenyl-2-carboxylic acid]
2 | CCOc1ccc(-c2ccc(-c3nc(-c4ccc(Cl)c(Cl)c4)cs3)cc2C(=O)O)c(Cl)c1 [Example 89, 2′-Chloro-4-[4-(3,4-dichloro-phenyl)-thiazol-2-yl]-4′-ethoxy-biphenyl-2-carboxylic acid]
1.7 | Cc1cccc(CNC(=O)c2ccc(-c3ccc(-c4nc(-c5ccc(Cl)c(Cl)c5)cs4)cc3C(=O)O)cc2)c1 [Example 70, 4-[4-(3,4-Dichloro-phenyl)-thiazol-2-yl]-4′-(3-methyl-benzylcarbamoyl)-biphenyl-2-carboxylic acid]
1.5 | O=C(NCc1ccc(F)cc1)c1ccc(-c2ccc(-c3nc(-c4ccc(Cl)c(Cl)c4)cs3)cc2C(=O)O)cc1 [Example 72, 4-[4-(3,4-Dichloro-phenyl)-thiazol-2-yl]-4′-(4-fluoro-benzylcarbamoyl)-biphenyl-2-carboxylic acid]
1.5 | COc1ccc(-c2ccc(-c3nc(-c4ccc(Cl)c(Cl)c4)cs3)cc2C(=O)O)c(Cl)c1 [Example 94, 2′-Chloro-4-[4-(3,4-dichloro-phenyl)-thiazol-2-yl]-4′-methoxy-biphenyl-2-carboxylic acid]
1.3 | NC(=O)c1ncccc1-c1ccc(-c2nc(-c3ccc(Cl)c(Cl)c3)cs2)cc1C(=O)O [Example 77, 2-(2-Carbamoyl-pyridin-3-yl)-5-[4-(3,4-dichloro-phenyl)-thiazol-2-yl]-benzoic acid]
